In ChEMBL document CHEMBL3864126, “Identification of SENP1 inhibitors through in silico screening and rational drug design” (Eur J Med Chem, 2016):

Target: T1, Sentrin-specific protease 1 (Homo sapiens, UniProt Q9P0U3)
T1 sequence (Q9P0U3 whole entry): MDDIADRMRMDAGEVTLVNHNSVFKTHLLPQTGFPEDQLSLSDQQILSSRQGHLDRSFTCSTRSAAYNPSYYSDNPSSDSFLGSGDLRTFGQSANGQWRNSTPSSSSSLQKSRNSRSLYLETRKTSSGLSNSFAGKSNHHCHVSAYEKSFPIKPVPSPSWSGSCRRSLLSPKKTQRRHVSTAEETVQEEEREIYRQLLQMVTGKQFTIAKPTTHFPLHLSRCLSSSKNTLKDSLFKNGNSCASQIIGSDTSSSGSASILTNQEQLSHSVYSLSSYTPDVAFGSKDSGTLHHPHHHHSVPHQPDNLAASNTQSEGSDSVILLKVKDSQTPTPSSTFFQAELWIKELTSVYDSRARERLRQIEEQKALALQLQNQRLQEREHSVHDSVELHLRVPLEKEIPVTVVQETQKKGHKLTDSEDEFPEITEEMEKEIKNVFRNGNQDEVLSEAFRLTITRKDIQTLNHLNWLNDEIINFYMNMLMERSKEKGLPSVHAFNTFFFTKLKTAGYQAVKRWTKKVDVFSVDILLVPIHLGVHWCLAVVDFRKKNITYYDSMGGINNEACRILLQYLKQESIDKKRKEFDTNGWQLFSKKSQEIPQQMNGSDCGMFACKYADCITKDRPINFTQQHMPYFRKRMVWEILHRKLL
Experiment: Inhibition of SENP1 catalytic domain (419 to 644 residues) (unknown origin) expressed in Escherichia coli BL21 (DE3) assessed as reduction in deSUMOylation preincubated for 10 mins followed by addition of RanGAP-SUMO as substrate measured after 25 mins by coomassie staining-based SDS-PAGE analysis

- IC50: 14 µM
Compound: O=C(N/N=C/C1CCCCC1)c1cc(Cl)ccc1O
